The test system of one test is spinal cord of EAE mice. In words: Luxol fast blue histology of spinal cord, % demyelination in EAE mice. The conditions noted are these: 0.01 mg/kg i.p. daily from disease onset, chronic phase. The format is in vivo, C57BL/6 mice. As to the method: Experimental detail: EAE was induced in female C57BL/6 mice as described in Example 1. On the day of disease onset (score >1), mice were started on daily treatment with vehicle only or nalmefene at 0.01 mg/kg by i.p. injection. During the chronic phase (>24 days post treatment initiation), mice were culled, perfused with 4% paraformaldehyde and spinal cords were processed for histology. […] Shown are the means and standard error of individual values from vehicle (n=7) or 0.01 (n=3) nalmefene-treated EAE mice. *p<0.05 by one-way ANOVA with Holm-Sidak's multiple comparison test.

In test [1] the test system is Alcohol consumption (Wistar and AA rat). To be noted: cited from earlier work.
In test [2] the test system is lymphocyte populations in the spleen of EAE mice. In words: Splenocyte flow cytometry in chronic phase of EAE. It counts as in vivo, C57BL/6 mice. The conditions noted are these: 0.01 mg/kg i.p. daily, 27 days post treatment initiation. As to the method: Experimental detail: EAE was induced in female C57BL/6 mice as described in Example 1. On the day of disease onset (score >1), mice were started on daily treatment with vehicle only or nalmefene at 0.01 mg/kg by i.p. injection. During the chronic phase (27 days post treatment initiation), mice were culled and their splenocytes assessed by flow cytometry. The percentage of the major lymphocyte populations were identified using CD4 (CD4 T helper cells), CD8 (CD8 cytotoxic T cells), and B220 (B cells), and expressed as % live leukocytes (i.e. CD45^+ cells). Shown are the means and standard error of individual mice with n=3 (healthy), 4 (vehicle) and 9 (NaIM). No significant differences were found between vehicle and healthy or nalmefene by one-way ANOVA with Holm-Sidak's multiple comparison test.
Experimental detail: EAE was induced in female C57BL/6 mice as described in Figure A. On the day of disease onset (score >1), mice were started on daily treatment with vehicle only or nalmefene at 0.01 mg/kg by i.p. injection. During the chronic phase (27 days post treatment initiation), mice were culled and their splenocytes assessed by flow cytometry. Naïve CD4 T cells (CD4^+CD44^−CD62L^high), effector CD4 T cells (CD4^+CD44^+CD62L^−), and central memory CD4T cells (CD4^+CD44^+CD62L^high) are expressed as % CD4 T cells. “Teff:cm ratio” is the ratio of effector to central memory T cells. […]

Test [3] deals with infiltrating immune cells (CD45high) in brain of EAE mice. In words: Immune cell infiltration into the brain of EAE mice (flow cytometry). The format is in vivo, C57BL/6 mice. As to the method: On day 17, mice were started on daily treatment with vehicle only (Veh) or nalmefene (NaIM) at 0.1 or 0.03 mg/kg by i.p. injection. On day 45 after immunization to induce EAE, mice were culled and immune cells isolated from the brains. Isolation was by Percoll gradient as described in White et al. 2018. Scientific Reports. 8:259. Once isolated, cells were stained with fluorescently labelled antibodies to identify specific immune cell types and analysed by flow cytometry. All infiltrating immune cells were identified by CD45^high expression; CD4 T cells were identified as CD45^highCD4^+, and macrophages as CD45^highCD11b^+Gr-1^−. The relative number of cells is expressed as a ratio to microglia (MG), a brain resident immune cell identified as CD45^mediumCD11b^+. ***p<0.001, **p<0.01, and *p<0.05 by one-way ANOVA with Dunnett's multiple comparison test.
Experimental detail: EAE was induced in female C57BL/6 mice as described in Example 1. […] Once isolated, cells were stained with fluorescently labelled antibodies to identify specific immune cell types and analysed by flow cytometry. […] The relative number of cells is expressed as a ratio to microglia (MG), a brain resident immune cell identified as CD45^mediumCD11b+. ****p<0.0001 and **p<0.01 by one-way ANOVA with Holm-Sidak's multiple comparison test compared to vehicle.
Background: In flow cytometry, cells or beads pass a laser one at a time.

Where [4] appears, read: Alcohol consumption (AA rat), PO.

Like-named read-outs stand apart in the source and are kept apart here.

Regarding `C=C1CC[C@@]2(O)[C@H]3Cc4ccc(O)c5c4[C@@]2(CCN3CC2CC2)[C@H]1O5` [nalmefene, (4R,4aS,7aS,12bS)-3-(cyclopropylmethyl)-7-methylidene-2,4,5,6,7a,13-hexahydro-1H-4,12-methanobenzofuro[3,2-e]isoquinoline-4a,9-diol], the “% demyelination of spinal cord (luxol fast blue)” value in the test on spinal cord of EAE mice was “significant reduction demyelination”. For the same compound, the ED50 in test [1] (setting [4]) was 16.1 μg/kq. Also, the “Inhibition (%)” value is 23% in test [1] (setting [4]); 73% in test [1] (Alcohol consumption (Wistar and AA rat), SC, 4 days); 67% in test [1] (Alcohol consumption (Wistar and AA rat), SC, 26 days); 75% in test [1] (Alcohol consumption (Wistar rat), SC, 6 days). Further, the “In vivo efficacy ED50” value in test [1] (SC administration, rat) is 0.2 to 0.4 mg/kg. Moreover, the “Teff:cm ratio (effector to central memory CD4 T cells) in spleen” value in test [2] is recorded as “reduced ratio”. For the same compound, the “proportion of major lymphocyte populations in the spleen (CD4, CD8, B220; % live leukocytes)” value in test [2] was “does not alter the proportion of the major lymphocyte populations in the spleen”. Further, the “number of infiltrating immune cells in brain (ratio to microglia)” value is recorded as “significantly reduced the number of infiltrating immune cells” in test [3] (0.03 mg/kg i.p. daily from day 17, day 45) and “significantly reduced the number of infiltrating immune cells” in test [3] (0.03 mg/kg i.p. daily from disease onset, chronic phase (>24 days)).

(Values after patent publication US20210023074A1, “TREATMENT OF DEMYELINATING DISEASES” (Victoria Link Ltd., priority 2018, published 2021).)
